Assay results: ChEMBL document CHEMBL4507281, “Data for DCP probe BI-4394” (2021)

Assays:
[1] = molecular target: RAC-beta serine/threonine-protein kinase (Homo sapiens) (UniProt P31751); settings: Compound concentration 100.0 nM
[2] = tested on: Serine/threonine-protein kinase B-raf (Homo sapiens), P15056 [V600E]; settings: Compound concentration 100.0 nM
[3] = molecular target: Cyclin-dependent kinase 11A (Homo sapiens) (UniProt Q9UQ88); settings: Compound concentration 100.0 nM
[4] = molecular target: Cyclin-dependent kinase 7 (Homo sapiens) (UniProt P50613); settings: Compound concentration 100.0 nM
[5] = molecular target: Cyclin-dependent kinase-like 3 (Homo sapiens) (UniProt Q8IVW4); settings: Compound concentration 100.0 nM
[6] = molecular target: Myotonin-protein kinase (Homo sapiens) (UniProt Q09013); settings: Compound concentration 100.0 nM
[7] = molecular target: Mitogen-activated protein kinase 15 (Homo sapiens) (UniProt Q8TD08); settings: Compound concentration 100.0 nM
[8] = molecular target: Focal adhesion kinase 1 (Homo sapiens) (UniProt Q05397); settings: Compound concentration 100.0 nM
[9] = tested on: Receptor-type tyrosine-protein kinase FLT3 (Homo sapiens), P36888 [UNDEFINED MUTATION]; settings: Compound concentration 100.0 nM
[10] = tested on: Receptor-type tyrosine-protein kinase FLT3 (Homo sapiens), P36888 [N841I]; settings: Compound concentration 100.0 nM
[11] = molecular target: Rhodopsin kinase GRK1 (Homo sapiens) (UniProt Q15835); settings: Compound concentration 100.0 nM
[12] = molecular target: Homeodomain-interacting protein kinase 3 (Homo sapiens) (UniProt Q9H422); settings: Compound concentration 100.0 nM
[13] = molecular target: Inhibitor of nuclear factor kappa-B kinase subunit epsilon (Homo sapiens) (UniProt Q14164); settings: Compound concentration 100.0 nM
[14] = molecular target: T1, Interleukin-1 receptor-associated kinase 4 (Homo sapiens) (UniProt Q9NWZ3); settings: Compound concentration 100.0 nM
T1 sequence (whole entry): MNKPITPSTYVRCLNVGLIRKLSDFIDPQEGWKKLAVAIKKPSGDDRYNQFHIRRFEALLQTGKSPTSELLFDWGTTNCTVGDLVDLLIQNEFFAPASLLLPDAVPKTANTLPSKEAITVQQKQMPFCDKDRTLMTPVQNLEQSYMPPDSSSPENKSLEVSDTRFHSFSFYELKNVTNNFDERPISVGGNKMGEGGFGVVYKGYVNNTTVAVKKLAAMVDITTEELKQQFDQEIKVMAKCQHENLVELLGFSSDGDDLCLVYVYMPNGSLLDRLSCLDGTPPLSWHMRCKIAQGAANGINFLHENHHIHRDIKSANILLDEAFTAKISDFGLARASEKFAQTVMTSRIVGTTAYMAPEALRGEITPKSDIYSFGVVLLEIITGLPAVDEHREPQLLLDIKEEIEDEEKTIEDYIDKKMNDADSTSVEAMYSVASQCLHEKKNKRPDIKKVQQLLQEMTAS

[15] = molecular target: Mast/stem cell growth factor receptor Kit (Homo sapiens) (UniProt P10721); settings: Compound concentration 100.0 nM
[16] = molecular target: Serine/threonine-protein kinase LATS2 (Homo sapiens) (UniProt Q9NRM7); settings: Compound concentration 100.0 nM
[17] = molecular target: Mitogen-activated protein kinase kinase kinase 15 (Homo sapiens) (UniProt Q6ZN16); settings: Compound concentration 100.0 nM
Mitogen-activated protein kinase kinase kinase 15 (Homo sapiens), sequence (Q6ZN16 whole entry): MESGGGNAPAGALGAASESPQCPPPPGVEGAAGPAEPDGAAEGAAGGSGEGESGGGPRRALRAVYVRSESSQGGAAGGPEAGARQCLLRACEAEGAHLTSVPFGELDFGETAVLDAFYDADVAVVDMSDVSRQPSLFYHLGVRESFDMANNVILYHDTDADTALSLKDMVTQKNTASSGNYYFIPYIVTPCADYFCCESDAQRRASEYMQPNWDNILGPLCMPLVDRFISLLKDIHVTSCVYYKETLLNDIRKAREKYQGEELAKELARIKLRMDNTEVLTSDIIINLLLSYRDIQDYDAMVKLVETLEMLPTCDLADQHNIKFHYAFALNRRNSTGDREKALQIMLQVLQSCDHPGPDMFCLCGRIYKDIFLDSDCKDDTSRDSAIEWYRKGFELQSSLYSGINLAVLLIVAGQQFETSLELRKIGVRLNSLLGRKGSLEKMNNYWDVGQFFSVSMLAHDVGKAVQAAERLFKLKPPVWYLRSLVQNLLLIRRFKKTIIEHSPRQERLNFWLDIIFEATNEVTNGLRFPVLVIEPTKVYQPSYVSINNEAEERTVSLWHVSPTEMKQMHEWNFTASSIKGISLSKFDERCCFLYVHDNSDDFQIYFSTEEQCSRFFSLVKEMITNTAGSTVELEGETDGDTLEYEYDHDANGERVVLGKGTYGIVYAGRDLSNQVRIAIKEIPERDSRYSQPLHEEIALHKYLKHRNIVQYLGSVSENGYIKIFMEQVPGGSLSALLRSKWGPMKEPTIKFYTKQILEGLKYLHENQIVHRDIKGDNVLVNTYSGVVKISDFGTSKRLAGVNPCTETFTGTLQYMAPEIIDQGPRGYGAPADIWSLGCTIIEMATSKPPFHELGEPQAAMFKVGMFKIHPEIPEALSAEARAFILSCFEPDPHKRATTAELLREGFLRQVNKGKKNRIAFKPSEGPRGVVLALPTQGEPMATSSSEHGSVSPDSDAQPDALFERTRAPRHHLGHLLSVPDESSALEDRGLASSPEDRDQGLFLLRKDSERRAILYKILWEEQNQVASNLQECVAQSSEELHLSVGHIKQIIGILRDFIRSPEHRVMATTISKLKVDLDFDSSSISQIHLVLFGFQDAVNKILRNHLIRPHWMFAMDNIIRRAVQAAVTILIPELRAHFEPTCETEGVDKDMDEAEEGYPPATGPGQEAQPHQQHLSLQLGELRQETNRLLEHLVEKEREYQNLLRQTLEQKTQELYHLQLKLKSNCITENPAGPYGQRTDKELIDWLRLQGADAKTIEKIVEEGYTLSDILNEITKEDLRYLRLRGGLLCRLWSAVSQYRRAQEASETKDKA

[18] = molecular target: Mitogen-activated protein kinase kinase kinase 4 (Homo sapiens) (UniProt Q9Y6R4); settings: Compound concentration 100.0 nM
Mitogen-activated protein kinase kinase kinase 4 (Homo sapiens), sequence (Q9Y6R4 whole entry): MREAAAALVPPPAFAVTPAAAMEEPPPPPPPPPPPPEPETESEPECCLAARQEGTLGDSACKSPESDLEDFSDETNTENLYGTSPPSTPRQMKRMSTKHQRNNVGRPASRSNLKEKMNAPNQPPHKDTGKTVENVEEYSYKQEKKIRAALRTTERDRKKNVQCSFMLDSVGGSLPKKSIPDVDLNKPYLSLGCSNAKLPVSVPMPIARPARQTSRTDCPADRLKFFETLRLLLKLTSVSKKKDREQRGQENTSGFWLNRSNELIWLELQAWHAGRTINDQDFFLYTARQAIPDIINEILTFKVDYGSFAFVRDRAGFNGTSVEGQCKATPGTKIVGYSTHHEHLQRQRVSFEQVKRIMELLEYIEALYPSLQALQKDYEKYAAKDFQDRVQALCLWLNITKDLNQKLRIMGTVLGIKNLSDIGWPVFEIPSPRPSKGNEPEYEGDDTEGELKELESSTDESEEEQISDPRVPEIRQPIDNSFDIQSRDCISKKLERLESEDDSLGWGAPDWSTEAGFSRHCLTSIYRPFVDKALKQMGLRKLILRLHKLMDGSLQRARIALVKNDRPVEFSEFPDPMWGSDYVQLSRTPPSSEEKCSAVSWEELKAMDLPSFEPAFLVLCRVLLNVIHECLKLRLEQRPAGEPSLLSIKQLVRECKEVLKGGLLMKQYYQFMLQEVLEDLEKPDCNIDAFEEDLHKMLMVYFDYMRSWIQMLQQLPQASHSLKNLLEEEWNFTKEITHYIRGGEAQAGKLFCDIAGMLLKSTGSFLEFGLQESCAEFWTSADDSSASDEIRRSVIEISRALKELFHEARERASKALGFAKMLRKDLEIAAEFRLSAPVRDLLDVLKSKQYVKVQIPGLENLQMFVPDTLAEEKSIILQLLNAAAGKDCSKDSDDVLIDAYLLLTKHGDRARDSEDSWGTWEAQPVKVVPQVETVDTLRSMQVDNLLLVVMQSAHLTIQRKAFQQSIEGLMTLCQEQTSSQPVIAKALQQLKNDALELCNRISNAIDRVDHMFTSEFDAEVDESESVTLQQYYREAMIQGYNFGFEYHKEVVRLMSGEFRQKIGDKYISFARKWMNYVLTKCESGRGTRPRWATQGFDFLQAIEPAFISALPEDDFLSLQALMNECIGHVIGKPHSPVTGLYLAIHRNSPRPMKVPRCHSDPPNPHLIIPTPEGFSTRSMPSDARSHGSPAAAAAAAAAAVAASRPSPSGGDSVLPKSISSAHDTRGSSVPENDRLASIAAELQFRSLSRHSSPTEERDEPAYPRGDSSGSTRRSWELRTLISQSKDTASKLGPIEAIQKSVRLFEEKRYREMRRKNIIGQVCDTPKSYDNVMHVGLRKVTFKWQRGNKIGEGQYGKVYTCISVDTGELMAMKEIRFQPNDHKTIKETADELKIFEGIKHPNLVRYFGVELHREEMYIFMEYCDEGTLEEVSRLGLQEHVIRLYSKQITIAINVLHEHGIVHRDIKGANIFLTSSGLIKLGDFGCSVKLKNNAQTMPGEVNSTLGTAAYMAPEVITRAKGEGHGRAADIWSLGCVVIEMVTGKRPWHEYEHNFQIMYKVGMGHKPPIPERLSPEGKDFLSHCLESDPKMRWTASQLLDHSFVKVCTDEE

[19] = molecular target: Serine/threonine-protein kinase MARK1 (Homo sapiens) (UniProt Q9P0L2); settings: Compound concentration 100.0 nM
[20] = molecular target: MAP kinase-interacting serine/threonine-protein kinase 1 (Homo sapiens) (UniProt Q9BUB5); settings: Compound concentration 100.0 nM
[21] = molecular target: Serine/threonine-protein kinase Nek10 (Homo sapiens) (UniProt Q6ZWH5); settings: Compound concentration 100.0 nM
[22] = molecular target: Serine/threonine-protein kinase Nek11 (Homo sapiens) (UniProt Q8NG66); settings: Compound concentration 100.0 nM
[23] = molecular target: Serine/threonine-protein kinase Nek5 (Homo sapiens) (UniProt Q6P3R8); settings: Compound concentration 100.0 nM
[24] = molecular target: Serine/threonine-protein kinase NLK (Homo sapiens) (UniProt Q9UBE8); settings: Compound concentration 100.0 nM
[25] = molecular target: Serine/threonine-protein kinase PAK 6 (Homo sapiens) (UniProt Q9NQU5); settings: Compound concentration 100.0 nM
[26] = molecular target: Phosphorylase b kinase gamma catalytic chain, skeletal muscle/heart isoform (Homo sapiens) (UniProt Q16816); settings: Compound concentration 100.0 nM
Phosphorylase b kinase gamma catalytic chain, skeletal muscle/heart isoform (Homo sapiens), sequence (Q16816 whole entry, looked up, the tested form may be a part, canonical isoform): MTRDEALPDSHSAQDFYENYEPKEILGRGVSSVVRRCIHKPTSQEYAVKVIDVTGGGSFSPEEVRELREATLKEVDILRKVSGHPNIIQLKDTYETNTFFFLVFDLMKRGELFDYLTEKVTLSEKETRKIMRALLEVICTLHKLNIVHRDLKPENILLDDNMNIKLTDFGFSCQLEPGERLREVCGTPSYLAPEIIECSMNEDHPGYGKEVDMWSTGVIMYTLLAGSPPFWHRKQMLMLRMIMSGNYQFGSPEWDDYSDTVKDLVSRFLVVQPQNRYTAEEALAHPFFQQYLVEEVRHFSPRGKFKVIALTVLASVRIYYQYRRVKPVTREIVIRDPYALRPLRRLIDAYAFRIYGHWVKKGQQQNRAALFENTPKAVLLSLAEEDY

[27] = molecular target: Phosphatidylinositol 4-phosphate 3-kinase C2 domain-containing subunit beta (Homo sapiens) (UniProt O00750); settings: Compound concentration 100.0 nM
[28] = tested on: Phosphatidylinositol 4,5-bisphosphate 3-kinase catalytic subunit alpha isoform (Homo sapiens), P42336 [M1043I]; settings: Compound concentration 100.0 nM
[29] = molecular target: Phosphatidylinositol 4-kinase beta (Homo sapiens) (UniProt Q9UBF8); settings: Compound concentration 100.0 nM
[30] = molecular target: Phosphatidylinositol 5-phosphate 4-kinase type-2 beta (Homo sapiens) (UniProt P78356); settings: Compound concentration 100.0 nM
[31] = molecular target: cAMP-dependent protein kinase catalytic subunit beta (Homo sapiens) (UniProt P22694); settings: Compound concentration 100.0 nM
[32] = molecular target: Ribosomal protein S6 kinase alpha-5 (Homo sapiens) (UniProt O75582); settings: Compound concentration 100.0 nM
[33] = molecular target: Serine/threonine-protein kinase 33 (Homo sapiens) (UniProt Q9BYT3); settings: Compound concentration 100.0 nM
Serine/threonine-protein kinase 33 (Homo sapiens), sequence (Q9BYT3 whole entry, looked up): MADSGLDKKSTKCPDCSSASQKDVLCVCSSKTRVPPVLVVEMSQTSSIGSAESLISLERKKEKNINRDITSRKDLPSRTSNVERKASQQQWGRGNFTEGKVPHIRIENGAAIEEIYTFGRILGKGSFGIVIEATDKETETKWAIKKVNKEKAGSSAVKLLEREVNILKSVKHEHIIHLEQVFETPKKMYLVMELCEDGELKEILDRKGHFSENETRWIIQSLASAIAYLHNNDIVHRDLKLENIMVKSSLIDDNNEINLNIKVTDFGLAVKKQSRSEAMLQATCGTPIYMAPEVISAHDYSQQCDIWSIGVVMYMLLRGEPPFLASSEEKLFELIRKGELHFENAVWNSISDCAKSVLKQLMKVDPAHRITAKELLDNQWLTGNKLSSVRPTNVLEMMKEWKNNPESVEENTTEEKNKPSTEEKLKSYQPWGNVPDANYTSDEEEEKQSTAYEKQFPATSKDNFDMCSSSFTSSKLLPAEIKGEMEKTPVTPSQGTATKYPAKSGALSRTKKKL

[34] = molecular target: Serine/threonine-protein kinase 36 (Homo sapiens) (UniProt Q9NRP7); settings: Compound concentration 100.0 nM
[35] = molecular target: Serine/threonine-protein kinase TAO3 (Homo sapiens) (UniProt Q9H2K8); settings: Compound concentration 100.0 nM
[36] = molecular target: Serine/threonine-protein kinase 32C (Homo sapiens) (UniProt Q86UX6); settings: Compound concentration 100.0 nM
[37] = molecular target: 5-hydroxytryptamine receptor 3A (Homo sapiens) (UniProt P46098); settings: Compound concentration 10.0 uM
[38] = molecular target: Alpha-2C adrenergic receptor (Homo sapiens) (UniProt P18825); settings: Compound concentration 10.0 uM
Alpha-2C adrenergic receptor (Homo sapiens), sequence (P18825 whole entry): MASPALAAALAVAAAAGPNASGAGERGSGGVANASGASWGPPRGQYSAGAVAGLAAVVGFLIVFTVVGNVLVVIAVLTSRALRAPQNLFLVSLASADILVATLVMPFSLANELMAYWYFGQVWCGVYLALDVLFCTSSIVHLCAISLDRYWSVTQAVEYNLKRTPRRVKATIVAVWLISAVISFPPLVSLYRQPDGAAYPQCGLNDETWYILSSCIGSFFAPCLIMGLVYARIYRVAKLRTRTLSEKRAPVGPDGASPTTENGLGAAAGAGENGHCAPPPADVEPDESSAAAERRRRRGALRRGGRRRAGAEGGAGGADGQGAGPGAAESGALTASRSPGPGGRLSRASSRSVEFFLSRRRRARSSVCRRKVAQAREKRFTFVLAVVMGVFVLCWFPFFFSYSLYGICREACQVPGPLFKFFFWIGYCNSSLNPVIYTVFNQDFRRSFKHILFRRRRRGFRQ

RAC-beta serine/threonine-protein kinase (Homo sapiens), sequence (P31751 whole entry): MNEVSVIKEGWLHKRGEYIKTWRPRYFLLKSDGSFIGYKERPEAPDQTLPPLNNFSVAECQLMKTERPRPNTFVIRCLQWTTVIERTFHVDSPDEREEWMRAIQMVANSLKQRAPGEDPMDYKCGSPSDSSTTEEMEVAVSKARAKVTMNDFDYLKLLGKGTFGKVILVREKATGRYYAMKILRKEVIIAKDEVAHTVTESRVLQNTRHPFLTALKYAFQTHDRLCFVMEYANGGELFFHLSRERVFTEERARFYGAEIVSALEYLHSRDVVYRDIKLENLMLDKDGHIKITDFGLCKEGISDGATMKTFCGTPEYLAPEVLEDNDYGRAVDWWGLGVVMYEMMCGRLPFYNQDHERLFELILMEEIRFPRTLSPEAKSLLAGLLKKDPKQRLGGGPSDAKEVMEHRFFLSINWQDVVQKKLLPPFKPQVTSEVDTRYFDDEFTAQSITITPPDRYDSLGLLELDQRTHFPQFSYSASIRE

Compound	residual activity [1] [%]	residual activity [2] [%]	residual activity [3] [%]	residual activity [4] [%]	residual activity [5] [%]	residual activity [6] [%]	residual activity [7] [%]	residual activity [8] [%]	residual activity [9] [%]	residual activity [10] [%]	residual activity [11] [%]	residual activity [12] [%]	residual activity [13] [%]	residual activity [14] [%]	residual activity [15] [%]	residual activity [16] [%]	residual activity [17] [%]	residual activity [18] [%]	residual activity [19] [%]	residual activity [20] [%]	also measured
CCOC(=O)c1cc2cc(-c3cc(C(=O)NCc4ccc(C(=O)O)cc4)nn3C)ccc2[nH]1 [BI 4394]	100	100	100	76	0	87	100	94	72	81	95	81	66	91	83	74	100	91	76	75	residual activity [21]: 90%; residual activity [22]: 77%; residual activity [23]: 100%; residual activity [24]: 86%; residual activity [25]: 99%; residual activity [26]: 100%; residual activity [27]: 93%; residual activity [28]: 100%; residual activity [29]: 79%; residual activity [30]: 100%; residual activity [31]: 86%; residual activity [32]: 91%; residual activity [33]: 100%; residual activity [34]: 97%; residual activity [35]: 85%; residual activity [36]: 100%; inhibition [37]: 34.8%; inhibition [38]: -7.04%
Cn1nc(C(=O)NCc2ccc(C(=O)O)cc2)cc1-c1ccc2[nH]ccc2c1 [BI 4395]	96	89	96	100	100	76	98	85	66	100	100	88	100	71	90	100	91	86	100	100	residual activity [21]: 58%; residual activity [22]: 83%; residual activity [23]: 48%; residual activity [24]: 100%; residual activity [25]: 96%; residual activity [26]: 100%; residual activity [27]: 78%; residual activity [28]: 85%; residual activity [29]: 70%; residual activity [30]: 93%; residual activity [31]: 98%; residual activity [32]: 76%; residual activity [33]: 87%; residual activity [34]: 93%; residual activity [35]: 83%; residual activity [36]: 100%; inhibition [37]: 23.5%; inhibition [38]: -7.92%
